{"source": "patent US8563714B2", "about": "“Bridged spiro [2.4] heptane derivatives as ALX receptor and/or FPRL2 agonists” (Actelion Pharmaceuticals Ltd., priority 2009, dated 2013)", "key": {"human ALX receptor": {"biological_target": "T1, human ALX receptor (Homo sapiens, UniProt P25090)", "T1 construct": "expressed in transfected cells; host or cells: HEK293 (HEK293-hALXR-Gα16)", "T1 sequence (P25090 1-351)": "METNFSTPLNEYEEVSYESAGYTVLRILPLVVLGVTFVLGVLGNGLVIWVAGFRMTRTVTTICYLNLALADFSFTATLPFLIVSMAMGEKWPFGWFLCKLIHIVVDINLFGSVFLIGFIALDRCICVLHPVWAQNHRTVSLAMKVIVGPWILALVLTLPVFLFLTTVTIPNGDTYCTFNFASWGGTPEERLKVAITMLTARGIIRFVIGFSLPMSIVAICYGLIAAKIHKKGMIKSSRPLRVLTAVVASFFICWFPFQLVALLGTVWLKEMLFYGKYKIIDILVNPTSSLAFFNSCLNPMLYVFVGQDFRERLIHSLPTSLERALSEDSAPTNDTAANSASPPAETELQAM", "assay": "Intracellular calcium measurements (FLIPR), agonistic activity in HEK293-hALXR-Gα16 cells", "assay_type": "cell-based", "settings": "Fluo-4 calcium FLIPR, normalized to WKYMVm 10 nM", "how_it_was_run": "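HEK293 cells expressing hALXR and Gα16 were loaded with 1 μM Fluo-4 AM and 20 mM HEPES for 60 min at 37°C, then exposed to serially diluted compound. FLIPR fluorescence was read at ex 488/em 540 nm. Baseline-subtracted peak responses were normalized to 10 nM WKYMVm.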"}, "human FPRL2": {"biological_target": "T2, human FPRL2 (Homo sapiens, UniProt P25089)", "T2 construct": "expressed in transfected cells; host or cells: HEK293 (HEK293-hFPRL2-Gα16)", "T2 sequence (P25089 1-353)": "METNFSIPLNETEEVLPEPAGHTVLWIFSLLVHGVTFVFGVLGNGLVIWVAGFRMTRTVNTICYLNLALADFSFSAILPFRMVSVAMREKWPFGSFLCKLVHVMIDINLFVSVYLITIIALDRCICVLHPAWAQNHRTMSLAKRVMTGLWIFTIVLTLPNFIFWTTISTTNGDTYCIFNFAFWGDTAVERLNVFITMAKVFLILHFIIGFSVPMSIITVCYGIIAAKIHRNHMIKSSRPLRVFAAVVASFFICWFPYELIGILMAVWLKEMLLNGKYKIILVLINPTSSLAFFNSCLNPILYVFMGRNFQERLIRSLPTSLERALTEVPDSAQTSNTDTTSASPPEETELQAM", "assay": "Intracellular calcium measurements (FLIPR), agonistic activity in HEK293-hFPRL2-Gα16 cells", "assay_type": "cell-based", "settings": "Fluo-4 calcium FLIPR, normalized to GLY14-Humanin 100 nM", "how_it_was_run": "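Peak values after baseline subtraction are expressed relative to 100 nM Gly14-Humanin; compounds diluted in assay buffer from 10 mM DMSO stocks.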"}}, "note": "pEC50: −log10 of the molar value.", "data": [{"smiles": "O=C(NCCCCN1CCCC1)[C@H]1[C@H](C(=O)Nc2ccc(C(F)(F)F)cn2)[C@@H]2C=C[C@H]1C21CC1", "note": "(racemic) [Example 252, (5R*)—N^5-(5-Trifluoromethyl-pyridin-2-yl)-(6R*)—N^6-(4-pyrrolidin-1-yl-butyl)-(4S*,7R*)-[4,7-ethenylene-spiro[2.4]heptane]-5,6-dicarboxamide]", "values": [{"measurement": "pEC50", "setting": "human ALX receptor", "value": 7.09}, {"measurement": "pEC50", "setting": "human FPRL2", "value": 6.68}]}, {"smiles": "O=C(NCCCCN1CCCC1)[C@H]1[C@H](C(=O)Nc2ccc3ncoc3c2)[C@@H]2C=C[C@H]1C21CC1", "note": "(racemic) [Example 254, (5R*)—N^5-(Benzo[d]oxazol-6-yl)-(6R*)—N^6-(4-pyrrolidin-1-yl-butyl)-(4S*,7R*)-[4,7-ethenylene-spiro[2.4]heptane]-5,6-dicarboxamide]", "values": [{"measurement": "pEC50", "setting": "human ALX receptor", "value": 6.31}, {"measurement": "pEC50", "setting": "human FPRL2", "value": 7.17}]}, {"smiles": "Cc1cc(CNC(=O)[C@H]2[C@H](C(=O)NCCCCN3CCCC3)[C@H]3C=C[C@@H]2C32CC2)no1", "note": "(racemic) [Example 255, (5R*)—N^5-(5-Methyl-isoxazol-3-yl-methyl)-(6R*)—N^6-(4-pyrrolidin-1-yl-butyl)-(4S*,7R*)-[4,7-ethenylene-spiro[2.4]heptane]-5,6-dicarboxamide]", "values": [{"measurement": "pEC50", "setting": "human ALX receptor", "value": 7.40}, {"measurement": "pEC50", "setting": "human FPRL2", "value": 6.31}]}, {"smiles": "Cc1csc(NC(=O)[C@H]2[C@H](C(=O)NCCCCN3CCCC3)[C@H]3C=C[C@@H]2C32CC2)n1", "note": "(racemic) [Example 256, (5R*)—N^5-(4-Methyl-thiazol-2-yl)-(6R*)—N^6-(4-pyrrolidin-1-yl-butyl)-(4S*,7R*)-[4,7-ethenylene-spiro[2.4]heptane]-5,6-dicarboxamide]", "values": [{"measurement": "pEC50", "setting": "human ALX receptor", "value": 5.17}, {"measurement": "pEC50", "setting": "human FPRL2", "value": 6.46}]}, {"smiles": "O=C(NCCCCN1CCCC1)[C@H]1[C@H](C(=O)Nc2nnc(C(F)(F)F)s2)[C@@H]2C=C[C@H]1C21CC1", "note": "(racemic) [Example 257, (5R*)—N^5-(5-Trifluoromethyl-1,3,4-thiadiazol-2-yl)-(6R*)—N^6-(4-pyrrolidin-1-yl-butyl)-(4S*,7R*)-[4,7-ethenylene-spiro[2.4]heptane]-5,6-dicarboxamide]", "values": [{"measurement": "pEC50", "setting": "human ALX receptor", "value": 5.22}, {"measurement": "pEC50", "setting": "human FPRL2", "value": 6.78}]}, {"smiles": "O=C(NCCF)[C@H]1[C@H](C(=O)Nc2ncc(Br)s2)[C@@H]2C=C[C@H]1C21CC1", "note": "(racemic) [Example 259, (5R*)—N^5-(5-Bromo-thiazol-2-yl)-(6R*)—N^6-(2-fluoro-ethyl)-(4S*,7R*)-[4,7-ethenylene-spiro[2.4]heptane]-5,6-dicarboxamide]", "values": [{"measurement": "pEC50", "setting": "human ALX receptor", "value": 6.45}, {"measurement": "pEC50", "setting": "human FPRL2", "value": "< 4.60"}]}, {"smiles": "O=C(NCCN1CCNC1=O)[C@H]1[C@H](C(=O)Nc2ncc(Br)s2)[C@@H]2C=C[C@H]1C21CC1", "note": "(racemic) [Example 260, (5R*)—N^5-(5-Bromo-thiazol-2-yl)-(6R*)—N^6-((2-imidazolidin-2-on)-1-yl-ethyl)-(4S*,7R*)-[4,7-ethenylene-spiro[2.4]heptane]-5,6-dicarboxamide]", "values": [{"measurement": "pEC50", "setting": "human ALX receptor", "value": 8.04}, {"measurement": "pEC50", "setting": "human FPRL2", "value": 5.06}]}, {"smiles": "CC(=O)c1csc(CNC(=O)[C@H]2[C@H](C(=O)NCCC(N)=O)[C@H]3C=C[C@@H]2C32CC2)n1", "note": "(racemic) [Example 261, (5R*)—N^5-(4-Acetyl-thiazol-2-yl-methyl)-(6R*)—N^6-(3-amino-3-oxopropyl)-(4S*,7R*)-[4,7-ethenylene-spiro[2.4]heptane]-5,6-dicarboxamide]", "values": [{"measurement": "pEC50", "setting": "human ALX receptor", "value": 6.53}, {"measurement": "pEC50", "setting": "human FPRL2", "value": "< 4.60"}]}, {"smiles": "CCN(CC)CCCCNC(=O)[C@H]1[C@H](C(=O)NCc2nc(C(C)=O)cs2)[C@@H]2C=C[C@H]1C21CC1", "note": "(racemic) [Example 262, (5R*)—N^5-(4-Acetyl-thiazol-2-yl-methyl)-(6R*)—N^6-(4-diethylamino-butyl)-(4S*,7R*)-[4,7-ethenylene-spiro[2.4]heptane]-5,6-dicarboxamide]", "values": [{"measurement": "pEC50", "setting": "human ALX receptor", "value": 7.01}, {"measurement": "pEC50", "setting": "human FPRL2", "value": 6.97}]}, {"smiles": "CCOCCCNC(=O)[C@H]1[C@H](C(=O)NCc2ccc(Br)cc2)[C@@H]2C=C[C@H]1C21CC1", "note": "(racemic) [Example 263, (5R*)—N^5-(4-Bromophenyl-methyl)-(6R*)—N^6-(3-ethoxy-propyl)-(4S*,7R*)-[4,7-ethenylene-spiro[2.4]heptane]-5,6-dicarboxamide]", "values": [{"measurement": "pEC50", "setting": "human ALX receptor", "value": 6.05}, {"measurement": "pEC50", "setting": "human FPRL2", "value": 5.35}]}]}
